Results on two molecules are retold here after patent US7279598B2, “Process for separating and recovering 3-hydroxypropionic acid and acrylic acid” (priority 2003, dated 2007).

The nature of this data set: Extraction of acrylic acid and 3-hydroxypropionic acid from aqueous stock solutions by ethyl acetate (partition between ethyl acetate and aqueous phase). In kind it is physicochemical. Conditions: for Partition coefficient, D, average number of partition coefficients listed in Table 2: ethyl acetate / aqueous phase, average over the five stock solutions; for Partition Coefficient, D: ethyl acetate extractant phase / aqueous phase, 22° C.; for Separation Factor, S AA/3HP: partition coefficient of AA divided by that of 3HP. As to the method:
The aqueous stock solutions comprise 30% 3-hydroxypropionic acid aqueous solution and 99% acrylic acid.
1. To a 15 ml centrifuge tube 5 ml of each acid stock solution and ethyl acetate extractant were added.
2. […] (rpm designates revolutions per minute).
4. The volumes of the aqueous and ethyl acetate extractant phases in the tubes were recorded.
The processing conditions and experimental results for the extraction of acrylic acid (AA) and 3-hydroxypropionic acid (3HP) by ethyl acetate are reported in the following Table 2.

Setting [1] is: Aqueous Stock Solution No. 1 (0.67 wt % AA, 1.34 wt % 3HP).
The mark [2] stands for this setting: Aqueous Stock Solution No. 2 (3.33 wt % AA, 6.67 wt % 3HP).
Setting [3] is: Aqueous Stock Solution No. 3 (6.67 wt % AA, 13.34 wt % 3HP).
Where [4] appears, read: Aqueous Stock Solution No. 4 (9.99 wt % AA, 19.98 wt % 3HP).
The mark [5] stands for this setting: Aqueous Stock Solution No. 5 (12.51 wt % AA, 25.05 wt % 3HP).

In the case of `O=C(O)CCO` [3HP, 3-hydroxypropionic acid], the “Partition coefficient, D, average number of partition coefficients listed in Table 2” value is listed as 0.274. Further, the “Partition Coefficient, D” value under setting [1] stood at 0.18. For the same molecule, under setting [2], the “Partition Coefficient, D” value came out at 0.21. In addition, the “Partition Coefficient, D” value under setting [3] was 0.27. Under setting [4], the “Partition Coefficient, D” value turned out to be 0.30. For the same molecule, under setting [5], the “Partition Coefficient, D” value was determined as 0.41.

Consider `C=CC(=O)O` [AA, acrylic acid], for which the “Partition coefficient, D, average number of partition coefficients listed in Table 2” value was 2.572. For the same molecule, the “Partition Coefficient, D” value under setting [1] was 2.96. For the same molecule, the “Partition Coefficient, D” value under setting [2] was found to be 2.97. In addition, the “Partition Coefficient, D” value under setting [3] is given as 2.66. Further, under setting [4], the “Partition Coefficient, D” value was found to be 2.36. Moreover, under setting [5], the “Partition Coefficient, D” value is recorded as 1.91. Under “Aqueous Stock Solution No. 1”, the “Separation Factor, S AA/3HP” value was determined as 16.55. Also, under “Aqueous Stock Solution No. 2”, the “Separation Factor, S AA/3HP” value is on record as 14.18. Under “Aqueous Stock Solution No. 3”, the “Separation Factor, S AA/3HP” value turned out to be 9.79. Moreover, the “Separation Factor, S AA/3HP” value (Aqueous Stock Solution No. 4) worked out at 7.81. Moreover, where the note is “Aqueous Stock Solution No. 5”, the “Separation Factor, S AA/3HP” value came to 4.66.
